From patent US6413508B1, “Green leaf volatiles as synergists for insect pheromones” (The United States of America as represented by the …, priority 1988, dated 2002)

What was measured:
[1] = tested on: Arizona boll weevils; experiment: Arizona initial field experiment, 24 traps in a straight line, four treatments; type: in vivo, Anthonomus grandis; details: 1, 10, 100 mg with grandlure 1 mg
Experimental: Since boll weevils in this region differ genetically from those in the southeastern United States [Burke, Texas Agric. Exp. Sta. Tech. Rep., 152 pp. (1968)], these tests were performed to determine if green leaf volatiles would also enhance capture of Arizona boll weevils in traps baited with the aggregation pheromone.
In the initial field experiment, 24 traps were placed 30 m apart in a straight line along a road near Phoenix and were baited with four different treatments: 1) grandlure 1 mg; 2) grandlure 1 mg+trans-2-hexen-1-ol 1 mg; 3) grandlure 1 mg+trans-2-hexen-1-ol 10 mg; 4) grandlure 1 mg+trans-2-hexen-1-ol 100 mg. All compounds were released from cigarette filters after mixing in a solution to retard their rate of release, as previously described [McKibben et al., supra]. Treatments were arranged in six blocks with the four treatments randomized within each block. Traps were checked the next day.

[2] = tested on: Boll Weevils; experiment: Competitive field test with released weevils, triangular trap array; type: in vivo, Anthonomus grandis
Experimental: Two series of field tests were performed involving released boll weevils, in which grandlure was placed in competition with grandlure + the synergist. In the first series of experiments, a triangular array of traps was used. One trap was placed at each corner of a 20 m equilateral triangle (total of three traps). The three treatments released in this triangular array of traps were: 1) grandlure 3 mg; 2) grandlure 3 mg+synergist 100 mg; and 3) synergist 100 mg. The three synergists tested in these experiments were: trans-2-hexen-1-ol, 1-hexanol, and cis-3-hexen-1-ol. Cigarette filters were used to release the experimental odorants. One hundred insets (50 males and 50 females) were released along a line 20 m from each side of the triangle (300 insects total) at ca. 1000 hrs prior to baiting of the traps at 1200 hrs. Traps were check and insects were removed at 1400 hrs, 1600 hrs, and 1800 hrs, the times at which the test was terminated.

[3] = tested on: Arizona boll weevils; experiment: Arizona third field experiment, traps around 20 cotton fields; type: in vivo, Anthonomus grandis; details: grandlure 5 mg + trans-2-hexen-1-ol 10 mg
Experimental: In a third field experiment, 20 cotton fields were selected. Three traps were placed at least 100 m apart along the edge of each field (60 traps total). The three traps were baited with one of the following treatments: 1) a 10-mg grandlure “Hercon” wafer; 2) 5 mg of grandlure in the same “Hercon” formulation; 3) the 5-mg grandlure
formulation+10 mg of trans-2-hexen-1-ol. The traps were checked daily and weevils were removed for the next 2 days.

[4] = tested on: Boll Weevils; experiment: Competitive field tests in Mississippi cotton fields, 4-week test period; type: in vivo, Anthonomus grandis; details: 10 mg and 100 mg, P<0.01, paired t-test
Experimental: Three cotton fields were used in this study to determine the effectiveness of trans-2-hexen-1-ol in synergizing grandlure in a practical situation. The experimental design consisted of placing four traps at the corners of a 20-m square within a cotton field of ca. 1 acre. Four additional traps were placed a few meters outside the cotton field, located near imaginary diagonal lines extending through the corners of the square within the field. Each trap contained a cigarette filter with 1 mg of grandlure. Cigarette filters containing trans-2-hexen-1-ol were placed alternately in the traps. The result resembled an “X” array of traps placed across each field with each arm of the “X” consisting of four traps, two within and two outside of the field. Traps within one arm contained grandlure 1 mg alone; those within the other arm were baited with grandlure 1 mg+trans-2-hexen-1-ol at a particular dosage. Only one dosage of the synergist occurred in each field. Dosages of trans-2-hexen-1-ol tested were: 1 mg, 10 mg, and 100 mg. Traps were freshly baited each week and checked daily at 1500 hrs for 3 days and at the end of the week.

[5] = tested on: Over-Wintered Boll Weevils; experiment: Competitive field test with over-wintered boll weevils, 3 weeks; type: in vivo, Anthonomus grandis; details: trans-2-hexen-1-ol 10 mg changed weekly, grandlure Hercon wafer 2.5 mg kept 3 wk
Experimental: The efficacy of the synergist in enhancing response of over-wintered boll weevils to grandlure was evaluated during the first 3 wks of May 1988, prior to the planting of cotton. In this experiment, the synergist trans-2-hexen-1-ol at 10 mg was released from a cigarette filter, in combination with a Hercon wafer formulation of grandlure at 2.5 mg. The grandlure formulation remained in the trap for the entire 3-wk period, while the cigarette filter containing the synergist was changed each week. During both the first and second weeks, trap captures increased for both the pheromone alone and for the pheromone+the synergist, presumably reflecting increasing numbers of boll weevils emerging from over-wintering sites (Table VII). However, while trap captures continued to increase for the pheromone+synergist during the third week, the number of boll weevils captured by the pheromone alone declined.

[6] = tested on: Single Olfactory Cells Responsive to Volatiles Emanating from a Crushed Cotton Square; experiment: Single-cell electrophysiology: action potentials from single olfactory cells; type: cell-based, Anthonomus grandis
Excerpt: Single-cell recording techniques are described in detail elswhere [Dickens, Mitt. Schweiz. Entomol. Ges. 52: 203 (1979); Dickens et al., J. Chem. Ecol. 10: 583 (1984)]. In brief, microelectrodes used for recordings were constructed from 50.8 μm diameter tungsten wire electrolytically sharpened to a tip of 1-2 μm. The recording electrode was positioned under optical control (150-200 X) with a Leitz high-power micromanipulator near either the base of one of the three sensory bands encircling the club, or the base of an individual sensillum just distal to each sensory band region. The ground electrode was inserted in either the rostrum or distal end of the scape. Action potentials were amplified and conditioned by a Grass P-15 preamplifier and Tektronix 5A22N amplifier prior to visualization on a Tektronix 5223 digitizing oscilloscope. The signal then passed through a Teac R51-D data recorder for recording on cassette tapes prior to visualization on a Tektronix 5111 analog oscilloscope. Data were photographed from the analog oscilloscope with a Tektronix C-5C oscilloscope camera. Trains of action potentials were counted visually.
Upon obtaining a single cell preparation, odorous stimuli were presented every 3 min. […] The first two stimuli tested were volatiles emanating from 1 μg of grandlure, followed by volatiles emanating from a crushed cotton square. These two stimuli served to determine whether the cell was activated by the attractive pheromone of the boll weevil and/or volatiles emanating from its food source.

[7] = tested on: Boll Weevils; experiment: Competitive field test with released weevils, four trap array; type: in vivo, Anthonomus grandis
Excerpt: The second series of experiments involved an array of four traps. […] The two treatments being tested simultaneously in this competitive arrangement were placed alternately in the traps, i.e., the two traps baited with the same treatment were located diagonally from each other. Odorants diluted in hexane were released from glass capillaries placed in small vials in a container in each trap. […] Traps were then immediately baited. In each test, traps were checked and insects were removed at 1530 hrs and 1700 hrs on the day of release, and before 0900 hrs the next day (the time at which the test was terminated) in order to remove those insects which might have responded prior to darkness on the day of release.

[8] = volatiles emanating from 1 μg of odorant, cell responsive to crushed cotton square

CCC/C=C/CO [trans-2-hexen-1-ol]
effect of addition on trap capture over grandlure alone [1]: enhanced trap capture
% Total ([2]; grandlure 3 mg vs trans-2-hexen-1-ol 100 mg vs both): 5.9%
Mean Trap Capture ([2]; grandlure 3 mg vs trans-2-hexen-1-ol 100 mg vs both, three replicates): 1.3 A
activity alone in competition with the other treatments ([2]; triangular array, 100 mg alone): relatively inactive
attraction of grandlure on addition of the compound, relative to grandlure alone ([2]; triangular array, grandlure 3 mg, synergist 100 mg): significantly increased
effect of addition to grandlure on attractiveness over the 10-mg grandlure treatment [3]: enhanced its attractiveness
weevils captured in combination with grandlure 1 mg vs grandlure alone at 1 mg [4]: captured more weevils of both sexes
effect of the synergist on effectiveness of the pheromone with time [5]: extend the effectiveness of the pheromone
response of cells activated by volatiles from the crushed cotton square ([6]; single olfactory cells): activated
Response in impulses/initial 500 msec, Cell #1 [6, 8]: 83 impulses/initial 500 msec
Response in impulses/initial 500 msec, Cell #2 [6, 8]: 67 impulses/initial 500 msec
Response in impulses/initial 500 msec, Cell #3 [6, 8]: 50 impulses/initial 500 msec
Response in impulses/initial 500 msec, Cell #4 [6, 8]: 33 impulses/initial 500 msec
trap capture in combination with grandlure (0.8 mg) in competition with grandlure (0.8 mg) alone ([7]; 0.1 mg, P<0.10, paired t-test): increased trap capture
synergism with grandlure (0.8 mg) in competition with grandlure (0.8 mg) alone ([7]; 1.0 mg of the compound): even more apparent
effectiveness in combination with grandlure (0.8 mg) vs the combination with 1-hexanol ([7]; each presented with grandlure 0.8 mg in a competitive experiment): more effective
